Laboratory results from ChEMBL document CHEMBL1125437, “Syntheses, resolution, and structure-activity relationships of potent acetylcholinesterase inhibitors: 8-carbaphysostigmine analogues” (J Med Chem, 1992).
pIC50: −log10 of the molar value.

How the values were obtained:
[1] = (§1) In vitro lethality measured at 24 hours in mice following intraperitoneal administration; settings: mouse, in vivo, ip, LD50
Mus musculus [2] = assay: Percent elevation of ACh level in mouse forebrain following intraperitoneal administration at a dose of 1.6 mg/kg; format: functional
Acetylcholinesterase [3] = molecular target: T1, Acetylcholinesterase (Homo sapiens, UniProt P22303); assay: In vitro inhibitory activity against human AchE (Acetylcholinesterase)
T1 sequence (P22303 whole entry): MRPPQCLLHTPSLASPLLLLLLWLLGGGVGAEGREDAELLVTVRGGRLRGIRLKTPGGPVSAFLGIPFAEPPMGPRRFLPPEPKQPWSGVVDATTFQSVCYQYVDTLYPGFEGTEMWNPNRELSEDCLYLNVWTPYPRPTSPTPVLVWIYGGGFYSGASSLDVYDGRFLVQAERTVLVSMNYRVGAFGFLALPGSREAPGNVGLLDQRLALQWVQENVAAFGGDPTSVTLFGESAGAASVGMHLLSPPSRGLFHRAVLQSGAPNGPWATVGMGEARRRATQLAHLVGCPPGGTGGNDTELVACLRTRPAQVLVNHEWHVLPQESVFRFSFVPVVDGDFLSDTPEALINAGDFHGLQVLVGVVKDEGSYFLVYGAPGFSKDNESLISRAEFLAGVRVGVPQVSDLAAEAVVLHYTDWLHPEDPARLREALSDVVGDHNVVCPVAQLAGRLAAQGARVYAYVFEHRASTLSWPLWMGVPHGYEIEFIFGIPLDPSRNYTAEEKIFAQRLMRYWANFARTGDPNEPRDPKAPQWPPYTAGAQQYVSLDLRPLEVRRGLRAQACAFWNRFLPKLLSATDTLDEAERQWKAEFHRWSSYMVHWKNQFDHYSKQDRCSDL

Acetylcholinesterase [4] = molecular target: T1, Acetylcholinesterase; assay: In vitro inhibitory activity against human Acetylcholinesterase
Mus musculus [5] = assay: Percent elevation of ACh level in mouse forebrain following intraperitoneal administration at a dose of 4.8 mg/kg; format: functional
Mus musculus [6] = assay: Percent elevation of ACh level in mouse forebrain following intraperitoneal administration at a dose of 2.0 mg/kg; format: functional
Mus musculus [7] = assay: as §1; settings: in vivo, ip, 24 h
Mus musculus [8] = assay: Percent elevation of ACh level in mouse forebrain following intraperitoneal administration at a dose of 0.8 mg/kg; format: functional
Mus musculus [9] = assay: Percent elevation of ACh level in mouse forebrain following intraperitoneal administration at a dose of 3.4 mg/kg; format: functional
Mus musculus [10] = assay: Percent elevation of ACh level in mouse forebrain following intraperitoneal administration at a dose of 0.4 mg/kg; format: functional
Mus musculus [11] = assay: Percent elevation of ACh level in mouse forebrain following intraperitoneal administration at a dose of 1.2 mg/kg; format: functional

CCN1CC[C@@]2(C)c3cc(OC(=O)Nc4ccccc4)ccc3CC12 (mixture of isomers)
LD50 at 24 h [1]: 8 mg/kg
Control (Mus musculus [2]): 121%
pIC50 (Acetylcholinesterase [3]): 6.75

CCCCCCCNC(=O)Oc1ccc2c(c1)[C@@H]1CCN(CC)C1C2 (mixture of isomers)
LD50 at 24 h [1]: 58 mg/kg
pIC50 (Acetylcholinesterase [4]): 6.42

CCCCNC(=O)Oc1ccc2c(c1)[C@@H]1CCN(CC)C1C2 (mixture of isomers)
LD50 at 24 h [1]: > 32 mg/kg
pIC50 (Acetylcholinesterase [3]): 5.97

CCCCCCCNC(=O)Oc1ccc2c(c1)[C@]1(C)CCN(C)[C@@H]1N2C [EPTASTIGMINE]
Control (Mus musculus [5]): 148%
LD50 at 24 h [1]: 24 mg/kg
pIC50 (Acetylcholinesterase [3]): 6.96

CCCCCCNC(=O)Oc1ccc2c(c1)[C@@H]1CCN(CC)C1C2 (mixture of isomers)
LD50 at 24 h [1]: 19 mg/kg
pIC50 (Acetylcholinesterase [3]): 6.68

CCCNC(=O)Oc1ccc2c(c1)[C@]1(C)CCN(CC)C1C2 (mixture of isomers)
LD50 at 24 h [1]: 6 mg/kg
pIC50 (Acetylcholinesterase [3]): 6.81

CCN1CC[C@@]2(C)c3cc(OC(=O)NC(C)(C)C)ccc3CC12 (mixture of isomers)
LD50 at 24 h [1]: > 100 mg/kg

CCCNC(=O)Oc1ccc2c(c1)[C@@H]1CCN(CC)C1C2 (stereo partly drawn)
pIC50 (Acetylcholinesterase [3]): 5.66

CCCCCCNC(=O)Oc1ccc2c(c1)[C@]1(C)CCN(C)C1C2 (mixture of isomers)
Control (Mus musculus [6]): 162%
LD50 at 24 h [1]: 10 mg/kg
pIC50 (Acetylcholinesterase [3]): 7.11

CCN1CC[C@@]2(C)c3cc(OC(=O)NC)ccc3CC12 (mixture of isomers)
LD50 at 24 h [1]: 0.88 mg/kg
pIC50 (Acetylcholinesterase [4]): 7.42

CCCCCCCNC(=O)Oc1ccc2c(c1)[C@]1(C)CCN(CC)C1C2 (mixture of isomers)
LD50 (Mus musculus [7]): 9 mg/kg
pIC50 (Acetylcholinesterase [3]): 7.24

CCCCCCNC(=O)Oc1ccc2c(c1)[C@]1(C)CCN(CC)C1C2 (single isomer, unassigned; (-))
LD50 (Mus musculus [7]): 4 mg/kg
pIC50 (Acetylcholinesterase [3]): 7.70
Control (Mus musculus [8]): 148%

CCCCCCNC(=O)Oc1ccc2c(c1)[C@]1(C)CCN(CCC)C1C2.Cc1ccc(C(=O)OC(C(=O)O)C(OC(=O)c2ccc(C)cc2)C(=O)O)cc1.O (mixture of isomers)
LD50 at 24 h [1]: 17 mg/kg
pIC50 (Acetylcholinesterase [4]): 7.21
Control (Mus musculus [9]): 141%

CCCCCCNC(=O)Oc1ccc2c(c1)[C@@H]1CCN(CCC)C1C2 (stereo in doubt; 1y)
pIC50 (Acetylcholinesterase [3]): 6.26

CCN1CC[C@H]2c3cc(OC(=O)NC)ccc3CC21 (stereo partly drawn)
pIC50 (Acetylcholinesterase [3]): 6.60

CCCCCCCNC(=O)Oc1ccc2c(c1)[C@]1(C)CCN(C)C1C2 (stereo partly drawn)
LD50 at 24 h [1]: 21 mg/kg
pIC50 (Acetylcholinesterase [3]): 6.94

CCN1CC[C@@]2(C)c3cc(OC(=O)NCc4ccccc4)ccc3CC12 (mixture of isomers)
LD50 at 24 h [1]: 2 mg/kg
Control (Mus musculus [10]): 123%

CNC(=O)Oc1ccc2c(c1)[C@]1(C)CCN(C)[C@@H]1N2C [PHYSOSTIGMINE]
LD50 at 24 h [1]: 0.88 mg/kg

CCCCCCCNC(=O)Oc1ccc2c(c1)[C@]1(C)CCN(CC)C1C2 (single isomer, unassigned; (+))
LD50 (Mus musculus [7]): 18 mg/kg
pIC50 (Acetylcholinesterase [3]): 6.68

CCCCNC(=O)Oc1ccc2c(c1)[C@]1(C)CCN(CC)C1C2 (mixture of isomers)
LD50 at 24 h [1]: 4 mg/kg
pIC50 (Acetylcholinesterase [4]): 7.05

CCCCCCNC(=O)Oc1ccc2c(c1)[C@]1(C)CCN(CC)C1C2 (single isomer, unassigned; (+))
LD50 (Mus musculus [7]): 32 mg/kg
pIC50 (Acetylcholinesterase [3]): 6.63

CCN1CC[C@@]2(C)c3cc(OC(=O)N[C@@H](C)c4ccccc4)ccc3CC12 (stereo partly drawn)
pIC50 (Acetylcholinesterase [3]): 5.88

CCCCCCCNC(=O)Oc1ccc2c(c1)[C@]1(C)CCN(CCC)C1C2 (stereo partly drawn)
LD50 at 24 h [1]: 27 mg/kg
pIC50 (Acetylcholinesterase [4]): 7.03

CCCCCCCNC(=O)Oc1ccc2c(c1)[C@]1(C)CCN(CC)C1C2 (single isomer, unassigned; (-))
LD50 (Mus musculus [7]): 6 mg/kg
pIC50 (Acetylcholinesterase [3]): 7.44
Control (Mus musculus [11]): 129%

CCCCCCCNC(=O)Oc1ccc2c(c1)[C@@H]1CCN(CCC)C1C2 (stereo partly drawn)
pIC50 (Acetylcholinesterase [3]): 6.20

CCCCCCNC(=O)Oc1ccc2c(c1)[C@@H]1CCN(CCC)C1C2 (stereo in doubt; 1z)
pIC50 (Acetylcholinesterase [3]): 6.29

CCCCCCNC(=O)Oc1ccc2c(c1)[C@]1(C)CCN(CC)C1C2 (mixture of isomers)
LD50 (Mus musculus [7]): 5 mg/kg
pIC50 (Acetylcholinesterase [3]): 7.35

CCCCCCCNC(=O)Oc1ccc2c(c1)[C@]1(C)CCN(Cc3ccccc3)C1C2 (stereo partly drawn)
pIC50 (Acetylcholinesterase [4]): 6.30
